The target of series [1] is T1, human mGluR4 transiently over-expressed in HEK-293 cells (Homo sapiens, UniProt Q14833).
T1 construct: expressed in transfected cells; host or cells: HEK-293 cells, transient co-transfection by electroporation
Put plainly: Human mGluR4 positive allosteric modulator evaluation using Ca++ functional assay. In kind it is cell-based. To be noted: for EC50: HEK-293 cells co-transfected with hmGluR4 and chimeric G protein, EC10 glutamate, intracellular calcium (Fluo4AM), read-out: mean EC50 of agonist/positive allosteric modulator activity on mGluR4; for PAM activity on mGluR4: up to 100 μM. The method, then: Human mGluR4 Positive Allosteric Modulator Evaluation Using Ca^++ Functional Assay
Compounds of the present invention were tested successively for their agonist and positive allosteric modulator activities on human mGluR4 transiently over-expressed in HEK-293 cells. They exert agonist activity if, by themselves in absence of the endogenous glutamate, they are able to activate mGluR4; and they exert positive allosteric modulator activity if they increase the action of the endogenous glutamate.
Cell Culture and Transfection
HEK-293 cells were maintained in Modified Eagle's Medium supplemented with 10% Foetal Calf Serum, 1% Penicillin/Streptomycin and 1% non essential amino acids at 37° C./5% CO2.
Cells were co-transfected by electroporation with two DNA plasmids encoding hmGluR4 and a chimeric G protein allowing redirection of the activation signal to intracellular calcium pathway. Cells were plated after transfection onto polyornithine coated, clear bottom, black-walled, 96-well plates and cultured for 24 h.
Calcium Assay EC50 Determination
Receptor activity was detected by changes in intracellular calcium measured using the fluorescent Ca^2+ sensitive dye, Fluo4AM (Molecular Probes).
The day of the assay, medium was aspirated and replaced during 3 hours by medium without serum supplemented with 1% Glutamax, 1% Penicillin/Streptomycin and 1% non essential amino acids. Then, cells were washed with freshly prepared buffer B (HBSS 1×(PAA), Hepes 20 mM, MgSO4-7H2O 1 mM, Na2CO3 3.3 mM, CaCl2-2H2O 1.3 mM, 0.5% BSA, Probenecid 2.5 mM) and loaded at 37° C. in 5% CO2 for 1.5 hours with buffer B containing 1 μM Fluo4AM 0.1 mg/mL Pluronic Acid, 7 μg/mL Glutamate Pyruvate Transaminase and 2 mM sodium pyruvate. Afterwards cells were washed twice with buffer B and 50 μL of this buffer were added to each well. Addition of compounds and intracellular Ca^2+ measurements (excitation 485 nm, emission 525 nm) were performed by the fluorescence microplate reader FlexStation (Molecular Devices).
Agonist and positive allosteric modulator activities of compounds were consecutively evaluated on the same cells plate. Agonist activity was first tested during 60 s with the addition of compound alone on the cells. Then, the cells were stimulated by an EC10 glutamate concentration and fluorescence recorded for additional 60 s. EC10 glutamate concentration is the concentration giving 10% of the maximal glutamate response. Agonist and/or positive allosteric modulator activity(ies) were evaluated in comparison to basal signal evoked by EC10 glutamate alone.
For EC50 determination, a dose-response test was performed using 6 to 9 concentrations of each compound of the invention. Dose-response curves were fitted using the sigmoidal dose-response (variable slope) analysis in GraphPad Prism program (Graph Pad Inc) and EC50 of agonist/positive allosteric modulator activity was calculated. Dose-response experiments were all performed in duplicate, two times independently.

The values that follow come from patent US8962627B2, “Oxime derivatives and their use as allosteric modulators of metabotropic glutamate receptors” (Prestwick Chemical, Inc., priority 2009, dated 2015).

T1 sequence (Q14833 33-912): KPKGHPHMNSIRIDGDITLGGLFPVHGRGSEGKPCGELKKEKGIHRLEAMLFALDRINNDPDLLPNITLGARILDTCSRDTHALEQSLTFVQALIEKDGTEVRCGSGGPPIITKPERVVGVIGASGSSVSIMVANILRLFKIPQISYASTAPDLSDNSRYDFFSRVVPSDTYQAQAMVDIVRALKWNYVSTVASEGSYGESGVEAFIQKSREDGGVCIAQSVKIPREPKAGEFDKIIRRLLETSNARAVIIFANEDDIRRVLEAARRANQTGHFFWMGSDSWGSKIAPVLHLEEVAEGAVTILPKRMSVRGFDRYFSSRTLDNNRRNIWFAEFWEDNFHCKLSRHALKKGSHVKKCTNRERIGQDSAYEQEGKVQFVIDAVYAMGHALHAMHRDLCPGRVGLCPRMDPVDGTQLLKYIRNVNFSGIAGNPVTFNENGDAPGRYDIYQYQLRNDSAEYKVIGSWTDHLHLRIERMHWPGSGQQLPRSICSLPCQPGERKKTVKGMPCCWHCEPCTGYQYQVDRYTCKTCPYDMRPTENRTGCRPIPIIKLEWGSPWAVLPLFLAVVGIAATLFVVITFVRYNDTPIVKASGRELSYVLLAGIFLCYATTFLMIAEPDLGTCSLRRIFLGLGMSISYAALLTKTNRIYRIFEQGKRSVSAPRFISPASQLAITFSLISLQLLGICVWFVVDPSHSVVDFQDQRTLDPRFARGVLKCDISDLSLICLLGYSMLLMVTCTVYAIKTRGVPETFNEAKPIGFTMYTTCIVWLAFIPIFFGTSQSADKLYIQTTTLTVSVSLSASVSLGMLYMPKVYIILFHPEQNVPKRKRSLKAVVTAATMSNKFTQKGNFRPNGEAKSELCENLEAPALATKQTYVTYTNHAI

On to `ON=c1cc(-c2cc3cccn3cn2)oc2ccc(OCCc3ccc(Cl)cc3)cc12` [Example 140, 6-[2-(4-Chloro-phenyl)-ethoxy]-2-pyrrolo[1,2-c]pyrimidin-3-yl-chromen-4-one oxime], for which the melting point fell in the range of 247 to 249 °C. Further, the EC50 in series [1] was less than 1000 nM.

For the compound `Cl.ON=c1cc(-c2cc3cccn3cn2)oc2ccc(OCCN3CCC(O)C3)cc12` (stereo not shown) [Example 98, 6-[2-(3-hydroxy-pyrrolidin-1-yl)-ethoxy]-2-pyrrolo[1,2-c]pyrimidin-3-yl-chromen-4-one oxime, hydrochloride], the melting point is > 230 °C (dec.). Also, in series [1], the EC50 was less than 1000 nM.

`ON=c1cc(-c2cc3ccccc3cn2)oc2ccc(C(F)(F)F)cc12` (mixture of isomers) [Example 11, 2-isoquinolin-3-yl-6-trifluoromethyl-chromen-4-one oxime] displayed a melting point of 245 to 247 °C. Moreover, the EC50 in series [1] is less than 5000 nM.

`COc1ccc2oc(-c3cc4ccccc4cn3)cc(=NO)c2c1` (mixture of isomers) [Example 42, 2-isoquinolin-3-yl-6-methoxy-chromen-4-one oxime] had a melting point of 250 to 255 °C. In addition, the EC50 in series [1] was less than 5000 nM.

With `ON=c1cc(-c2cc3ccccc3cn2)oc2ccc(OC(F)(F)F)cc12` (mixture of isomers) [Example 10, 2-isoquinolin-3-yl-6-trifluoromethoxy-chromen-4-one oxime], the melting point fell in the range of 250 to 254 °C. Further, the EC50 in series [1] is less than 5000 nM.

In turn, `Cl.ON=c1cc(-c2cc3cccn3cn2)oc2ccc(OCCCc3ccncc3)cc12` [Example 159, 6-(3-Pyridin-4-yl-propoxy)-2-pyrrolo[1,2-c]pyrimidin-3-yl-chromen-4-one oxime, hydrochloride] registered a melting point of 210 to 215 °C. Besides, in series [1], the EC50 is less than 1000 nM.

Compound `Cl.ON=c1cc(-c2cc3sccc3cn2)oc2ccc(OCCCc3cccnc3)cc12` [Example 135, 6-(3-Pyridin-3-yl-propoxy)-2-thieno[3,2-c]pyridin-6-yl-chromen-4-one oxime, hydrochloride] registered a melting point of 252 to 254 °C. The EC50 in series [1] was less than 1000 nM.

Regarding `CN1CCCN(CCOc2ccc3oc(-c4cc5cccn5cn4)cc(=NO)c3c2)CC1.Cl.Cl` [Example 94, 6-[2-(4-methyl-[1,4]diazepan-1-yl)-ethoxy]-2-pyrrolo[1,2-c]pyrimidin-3-yl-chromen-4-one oxime, dihydrochloride], the melting point is > 210 °C (dec.). Also, the EC50 in series [1] is less than 1000 nM.

Consider `ON=c1cc(-c2cc3ccccc3cn2)oc2ccc(F)cc12` (mixture of isomers) [Example 6, 6-fluoro-2-isoquinolin-3-yl-chromen-4-one oxime], for which the melting point was 278 to 280 °C. Also, in series [1], the EC50 is less than 5000 nM.

Take `COCCOc1cccc(C#Cc2ccc3c(=NO)cc(-c4cc5ccccc5cn4)oc3c2)c1` (mixture of isomers) [Example 53, 2-Isoquinolin-3-yl-7-[3-(2-methoxy-ethoxy)-phenylethynyl]-chromen-4-one oxime]: the melting point was 155 to 160 °C. Also, in series [1], the EC50 was less than 1000 nM.

For `Cl.ON=c1cc(-c2cc3cccn3cn2)oc2ccc(OCCCN3CCOCC3)cc12` [Example 101, 6-(3-morpholin-4-yl-propoxy)-2-pyrrolo[1,2-c]pyrimidin-3-yl-chromen-4-one oxime, hydrochloride], the melting point was > 220 °C (dec.). Besides, in series [1], the EC50 was less than 1000 nM.

Turning to `ON=c1cc(-c2cc3sccc3cn2)oc2ccccc12` [Example 70, 2-Thieno[3,2-c]pyridin-6-yl-chromen-4-one oxime], the melting point lay within 272 to 275 °C. The EC50 in series [1] is less than 1000 nM.

Take `COC[C@H]1CCCN1CCOc1ccc2oc(-c3cc4cccn4cn3)cc(=NO)c2c1.Cl` [Example 97, 6-[2-((R)-2-methoxymethylpyrrolidin-1-yl)-ethoxy]-2-pyrrolo[1,2-c]pyrimidin-3-yl-chromen-4-one oxime, hydrochloride]: the melting point is 210 °C (dec.). In series [1], the EC50 was less than 1000 nM.

Consider `ON=c1cc(-c2ccc3ccccc3n2)oc2ccccc12` [Example 79, 2-Quinolin-2-yl-chromen-4-one oxime], for which the melting point lay within 232 to 235 °C. The “PAM activity on mGluR4” value in series [1] is recorded as “no PAM activity”.

Consider `ON=c1cc(-c2ccc3ccccc3c2)oc2ccccc12` [Example 74, 2-Naphthalen-2-yl-chromen-4-one oxime], for which the melting point is 224 to 226 °C. For the same compound, the “PAM activity on mGluR4” value in series [1] is “no PAM activity”.

With `CCc1ccc2oc(-c3cc4ccccc4cn3)cc(=NO)c2c1` [Example 37, 6-ethyl-2-isoquinolin-3-yl-chromen-4-one oxime], the melting point lay in the range of 210 to 212 °C. The EC50 in series [1] was less than 1000 nM.

As to `CN1CCN(CCOc2ccc3oc(-c4cc5cccn5cn4)cc(=NO)c3c2)CC1.Cl.Cl` [Example 93, 6-[2-(4-methyl-piperazin-1-yl)-ethoxy]-2-pyrrolo[1,2-c]pyrimidin-3-yl-chromen-4-one oxime, dihydrochloride], the melting point is > 230 °C (dec.). The EC50 in series [1] was less than 5000 nM.

With `ON=c1cc(-c2cc3cccn3cn2)oc2ccc(OCCCOc3cccnc3)cc12` [Example 149, 6-[3-(Pyridin-3-yloxy)-propoxy]-2-pyrrolo[1,2-c]pyrimidin-3-yl-chromen-4-one oxime], the melting point was in the range of 202 to 205 °C. In addition, the EC50 in series [1] was less than 1000 nM.

With `COCCOCC#Cc1ccc2c(=NO)cc(-c3cc4ccccc4cn3)oc2c1` (mixture of isomers) [Example 54, 2-Isoquinolin-3-yl-7-[3-(2-methoxy-ethoxy)-prop-1-ynyl]-chromen-4-one oxime], the melting point was in the range of 158 to 160 °C. For the same compound, the EC50 in series [1] is less than 5000 nM.

Consider `Cl.Cl.ON=c1cc(-c2cc3cccn3cn2)oc2ccc(OCCN3CCC(N4CCCCC4)CC3)cc12` [Example 116, 6-(2-[1,4′]bipiperidinyl-1′-yl-ethoxy)-2-pyrrolo[1,2-c]pyrimidin-3-yl-chromen-4-one oxime, dihydrochloride], for which the melting point was > 235 °C (dec.). For the same compound, the EC50 in series [1] is less than 1000 nM.

Consider `Cl.ON=c1cc(-c2cc3cccn3cn2)oc2ccc(OCCN3CCCCC3)cc12` [Example 88, 6-(2-Piperidin-1-yl-ethoxy)-2-pyrrolo[1,2-c]pyrimidin-3-yl-chromen-4-one oxime, hydrochloride], for which the melting point is > 255 °C (dec.). Besides, the EC50 in series [1] was less than 5000 nM.

`COC1CCCN(CCOc2ccc3oc(-c4cc5cccn5cn4)cc(=NO)c3c2)C1.Cl` (stereo not shown) [Example 108, 6-[2-(3-methoxy-piperidin-1-yl)-ethoxy]-2-pyrrolo[1,2-c]pyrimidin-3-yl-chromen-4-one oxime, hydrochloride] displayed a melting point of 178 to 184 °C. Besides, the EC50 in series [1] was less than 1000 nM.

`Cl.ON=c1cc(-c2cc3cccn3cn2)oc2cccc(OCCN3CCOCC3)c12` [Example 156, 5-(2-Morpholin-4-yl-ethoxy)-2-pyrrolo[1,2-c]pyrimidin-3-yl-chromen-4-one oxime, hydrochloride] came in with a melting point of 200 to 205 °C. Further, the EC50 in series [1] is less than 1000 nM.

In the case of `Cl.ON=c1cc(-c2cc3cccn3cn2)oc2ccc(OCCN3CCCC(F)(F)C3)cc12` [Example 114, 6-[2-(3,3-difluoro-piperidin-1-yl)-ethoxy]-2-pyrrolo[1,2-c]pyrimidin-3-yl-chromen-4-one oxime, hydrochloride], the melting point fell in the range of 190 to 195 °C. Besides, the EC50 in series [1] is less than 1000 nM.

The compound `OCCC#Cc1ccc2c(=NO)cc(-c3cc4ccccc4cn3)oc2c1` (mixture of isomers) [Example 52, 7-(4-Hydroxy-but-1-ynyl)-2-isoquinolin-3-yl-chromen-4-one oxime] displayed a melting point of 238 to 240 °C. The EC50 in series [1] was less than 5000 nM.

For the compound `ON=c1cc(-c2cc3cccn3cn2)oc2ccc(OCCc3ccccc3)cc12` [Example 146, 6-Phenethyloxy-2-pyrrolo[1,2-c]pyrimidin-3-yl-chromen-4-one oxime], the melting point was 210 °C. Besides, the EC50 in series [1] is less than 1000 nM.
